Data as given in article PMC3352927, “Development and Validation of an Automated High-Throughput System for Zebrafish In Vivo Screenings” (PLoS ONE, 2012).
Entries after “also recorded” stand apart in the source; their conditions may differ. Structures can show the parent of a compound that is named as a salt. Where two headings read alike, the source gives them in different places.

Experiments:
48 hpf zebrafish embryos = conditions: for Cardiotoxic effect in zebrafish: blind screened between 1 and 200 µM, predominant effect
Description: The image analysis program for the Cardiotoxicity assay was based on the processing of the videos to obtain a periodic signal of the cardiac motion automatically and independent to the embryo position.
The detection of the heart beat frequency was based on the frequency spectrum analysis of the Euclidean Distance (ED) signal (built as the ED between the frames of the video referred to a reference frame calculated with the mean values of intensity for homogeneous zones). Obtaining the periodogram using the Discrete Fourier Transform (DFT), and modifying it to avoid undesired effects, the heart beat frequency was given by its first significant frequency (Figure 3 A).
For embryos with arrhythmia (A), the sinusoidal course of the ED signal was disrupted due to the irregular beating of the heart, i.e. the different beating frequency of each chamber. The classification of the arrhythmia cases was therefore based on the number of significant frequencies detected in the DFT of the ED signal (Figure 3 B).
Embryos at 48 hpf were automatically dispensed in a 96 well plate discarding exterior columns and rows and volume was leveled to 50µl with E3. Compounds were prepared 200 times concentrated in DMSO. A 1∶100 dilution was automatically made from the stock and 50 µl were added to each embryo to reach the final concentration. […] Embryos that moved during video recording were discarded. […] One video per embryo from a minimum of 10 embryos in each treated group were necessary for statistical analysis.

humans = conditions: known effects in humans; cited from earlier work
zebrafish embryos = assay: Automated angiogenesis assay (ISV formation), Flk1:copGFP embryos treated at 22-26 hpf, read at 48 hpf; assay type: in vivo; conditions: for IC50: manually quantified; for Angiog. inhibition: presence or absence of an anti-angiogenic effect, 0.01-100 µM; for Anti-angiogenic phenotype (ISVs / DLAV): treated at 24 hpf, checked at 48 hpf
Description: In the angiogenesis assay, the fluorescent images taken were processed using AxioVision 4.6.3 and a macro was developed to quantify an indirect measure of the area of the ISVs. […] However, we usually include a manual counting to offer a more detailed measurement of effect.
In the automatic analysis of angiogenesis, it is first necessary to perform a sequence of automated filtering functions on the image to extract information, define the region of interest (ROI), that in this case is the part of the tail containing the ISVs, and allow the measurement of the embryo length. Recovering a previous image, new filtering functions are applied to the ROI. A gradient image containing the ISVs, the DLAV (Dorsal Longitudinal Anastomotic Vessel), the PCV and the DA is created. Next, fluorescent areas that should not be quantified are discarded. Finally, only the areas comprised between the ISVs, the DLAV and the PCV or the DA are measured (Figure 4). In that way, when the vessels are incomplete or the DLAV is not present, an enclosed area is not present and therefore not measured.
The means obtained from the treated embryos were compared with the control mean. When statistically significant differences were detected a deeper analysis was done manually. In this case the parameters quantified were:
• The total number of ISVs present in the trunk of the embryos (from where the largest bulge of the yolk ends to the end of the tail). • Number of complete ISVs (reached the dorsal part of the embryo and formed the DLAV).
A curve of six concentrations (0.01, 0.1, 1, 10, 30 and 100 µM) was performed for all of them. […] IC50 was calculated when a clear dose-dependent anti-angiogenesis effect was detected. Otherwise, the minimum dose at which the inhibition of angiogenesis was observed is shown (Table 4).
At this time, chorions were removed with protease from Streptomyces griseus (Sigma-Aldrich) (1.5 mg/ml for 6 minutes) and the embryos were sorted and dispensed 1 per well in a 96 well assay plate. Each experimental condition was tested in a row with ten embryos. Embryos were dispensed in an average final volume of 90 µl of E3 media. 90 µl of the test items (DMSO and positive control KRN633 included) previously diluted 100 times were dispensed into each well of the assay plate containing the embryos to get the final volume of 180 µl and the desired final concentration.
The microscope scanned the wells by columns and a bright field image and a fluorescent image (2.5×magnification) were acquired per well. Then, the image analysis was performed and the result file generated.
Statistical analysis and graphical representation of the data were performed using SSPS (Statistical Package for the Social Sciences) software and Prism (Graph Pad Software) for IC50 calculations (non linear regression, sigmoidal dose-response with variable slope). […] In the angiogenesis assay, for comparisons between two groups, two-tailed t-test was used assuming unequal variances. For comparisons between more than two groups one-way analysis of variance followed by Dunnett’s post-test was applied to compare each data point with vehicle control.

[1] = Danio rerio, read-out: IC50 C.V. (complete number of vessels)
[2] = Danio rerio, read-out: IC50 T.V. (total number of vessels)
[3] = read-out: IC50 C.V. (complete number of vessels)
[4] = read-out: IC50 T.V. (total number of vessels)

SMILES | Cardiac effect in humans (humans) | Angiog. inhibition (zebrafish embryos) | other results
CCS(=O)(=O)N(C)[C@H]1c2cc(C#N)ccc2OC(C)(C)[C@@H]1O (racemic) [Chromanol 293b] | QT-prolong. |  | Cardiotoxic effect in zebrafish (48 hpf zebrafish embryos): No effect
COc1cc2c(cc1O)CC[C@@H]1[C@@H]2CC[C@]2(C)[C@@H](O)CC[C@@H]12 [2-Methoxyestradiol] |  | Yes | IC50 (zebrafish embryos; [1]): 10.2 µM; IC50 (zebrafish embryos; [2]): 30.6 µM; Anti-angiogenic phenotype (ISVs / DLAV) (zebrafish embryos): the formation of ISVs was perturbed with defective or total absence of sprouting
Cc1cn[nH]c1.Cl [4-Methylpyrazole hydrochloride] |  | No | 
COc1cc2ncnc(Nc3cccc(Cl)c3)c2cc1OC [AG1478] |  | Yes | IC50 (zebrafish embryos; [3]): 13 µM; IC50 (zebrafish embryos; [4]): 22.8 µM; Anti-angiogenic phenotype (ISVs / DLAV) (zebrafish embryos): the formation of ISVs was perturbed with defective or total absence of sprouting; also recorded: lower number of incomplete ISVs
CC(N)=O [Acetamide] |  | No | 
CCCCc1oc2ccccc2c1C(=O)c1cc(I)c(OCCN(CC)CC)c(I)c1 [Amiodarone hydrochloride] |  | No | 
CCCCc1oc2ccccc2c1C(=O)c1cc(I)c(OCCN(CC)CC)c(I)c1 [Amiodarone] | QT-prolong. |  | 
COc1ccc(CCN2CCC(Nc3nc4ccccc4n3Cc3ccc(F)cc3)CC2)cc1 [Astemizole] | QT-prolong. |  | 
CC(C)C[C@H](NC(=O)[C@@H](O)[C@H](N)Cc1ccccc1)C(=O)O [Bestatin] |  | No | 
COc1cc(N)c(Cl)cc1C(=O)NC1CCN(CCCOc2ccc(F)cc2)CC1OC (stereo not drawn) [Cisapride] | QT-prolong. |  | 
C[C@H]1O[C@@H](O[C@H]2[C@@H](O)C[C@H](O[C@H]3[C@@H](O)C[C@H](O[C@H]4CC[C@@]5(C)[C@H](CC[C@@H]6[C@@H]5CC[C@]5(C)[C@@H](C7=CC(=O)OC7)CC[C@]65O)C4)O[C@@H]3C)O[C@@H]2C)C[C@H](O)[C@@H]1O [Digitoxin] |  |  | Predominant observed effect (48 hpf zebrafish embryos; 48 hpf zebrafish embryos, 5 µM): N; Cardiotoxic effect in zebrafish (48 hpf zebrafish embryos): Cardiac arrest
COc1cccc2c1C(=O)c1c(O)c3c(c(O)c1C2=O)C[C@@](O)(C(=O)CO)C[C@@H]3O[C@H]1C[C@H](N)[C@H](O)[C@H](C)O1 [Doxorrubicin] | No effect |  | 
CC(C)C[C@H](NC(=O)[C@H]1O[C@@H]1C(=O)O)C(=O)NCCCCN=C(N)N [E64] |  | No | 
CNCCC(Oc1ccc(C(F)(F)F)cc1)c1ccccc1 (stereo not drawn) [Fluoxetine] | Arrhythmia |  | 
O=C(O)P(=O)(O)O [Foscarnet] | Bradycardia |  | Cardiotoxic effect in zebrafish (48 hpf zebrafish embryos): Bradycardia
CO[C@@H]1[C@H](OC(=O)/C=C/C=C/C=C/C=C/C(=O)O)CC[C@]2(CO2)[C@H]1[C@@]1(C)O[C@@H]1CC=C(C)C [Fumagillin] |  | not detected and No | 
COC(=O)c1ccc(O)c(NC(=O)COc2ccc(C34CC5CC(CC(C5)C3)C4)cc2)c1 [HIF-1 Inhibitor] |  | No | Angiog. inhibition (zebrafish embryos; listed as Hif-1 inhibitor): not detected
O=C1Nc2ccccc2/C1=C1/Nc2ccccc2/C1=N\O [Indirubin-3̀-oxime] |  | Yes | IC50 (zebrafish embryos; [3]): 4.2 µM; IC50 (zebrafish embryos; [4]): 18.3 µM; Anti-angiogenic phenotype (ISVs / DLAV) (zebrafish embryos): the formation of ISVs was perturbed with defective or total absence of sprouting
CCCNC(=O)Nc1ccc(Oc2ncnc3cc(OC)c(OC)cc23)cc1Cl [KRN633] |  | Yes | IC50 (zebrafish embryos; [1]): 0.026 µM; IC50 (zebrafish embryos; [2]): 0.035 µM; Anti-angiogenic phenotype (ISVs / DLAV) (zebrafish embryos): the formation of ISVs was perturbed with defective or total absence of sprouting
O=C(c1ccc(F)cc1)C1CCN(CCn2c(=O)[nH]c3ccccc3c2=O)CC1 [Ketanserin] | Bradycardia |  | 
CS(=O)(=O)CCNCc1ccc(-c2ccc3ncnc(Nc4ccc(OCc5cccc(F)c5)c(Cl)c4)c3c2)o1 [Lapatinib] | No effect |  | 

SMILES | Cardiac effect in humans (humans) | Angiog. inhibition (zebrafish embryos) | other results
CCN(CC)CC(=O)Nc1c(C)cccc1C [Lidocaine] | Bradycardia |  | 
CC(=O)N[C@@H](CS)C(=O)O [N-Acetyl-L-cysteine] |  | No | 
CN1CCC[C@H]1c1cccnc1 [Nicotine] | Bradycardia |  | Cardiotoxic effect in zebrafish (48 hpf zebrafish embryos): Bradycardia
CCOC(=O)C1=C(C)NC(C)=C(C(=O)OC)C1c1cccc([N+](=O)[O-])c1 (stereo not drawn) [Nitrendipine] | Cardiac arrest |  | 
Nc1nc(OCc2ccccc2)c2nc[nH]c2n1 [O6-benzylguanine] |  | No | 
COc1cc(OC)cc(-c2cc3cnc(N)nc3nc2NC(=O)NC(C)(C)C)c1 [PD166866] |  | Yes | IC50 (zebrafish embryos; [3]): 16 µM; IC50 (zebrafish embryos; [4]): 43.9 µM; Anti-angiogenic phenotype (ISVs / DLAV) (zebrafish embryos): the formation of ISVs was perturbed with defective or total absence of sprouting; also recorded: strong angiogenesis inhibition
COc1cc2nccc(Oc3ccc(NC(=S)NC(=O)c4ccccc4C)cc3)c2cc1OC [PDGFR tyr kin inhibitor V] |  | Yes | IC50 (zebrafish embryos; [3]): 0.14 µM; IC50 (zebrafish embryos; [4]): 0.19 µM; Anti-angiogenic phenotype (ISVs / DLAV) (zebrafish embryos; listed as PDGFR tyrosine kinase inhibitor): the formation of ISVs was perturbed with defective or total absence of sprouting; Anti-angiogenic phenotype (ISVs / DLAV) (zebrafish embryos; listed as PDGFR tyrosine kinase inhibitor V): strong angiogenesis inhibition
CC[C@@H]1C(=O)OC[C@@H]1Cc1cncn1C [Pilocarpine] | No effect |  | 
O=c1[nH]c2ccccc2n1C1CCN(CCCC(c2ccc(F)cc2)c2ccc(F)cc2)CC1 [Pimozide] | QT-prolong. |  | 
Cc1nc2n(c(=O)c1CCN1CCC(c3noc4cc(F)ccc34)CC1)CCCC2 [Risperidone] | QT-prolong. |  | 
N#Cc1cc2c(OCC(O)CN3CCN(C(c4ccccc4)c4ccccc4)CC3)cccc2[nH]1 (stereo not drawn) [SDZ-201106] | QT-prolong. |  | Cardiotoxic effect in zebrafish (48 hpf zebrafish embryos): 2∶1 arrhythmia and type 2∶1 arrhythmias and Arrhythmia 2∶1
O=C1NCCN1CCN1CCC(c2cn(-c3ccc(F)cc3)c3ccc(Cl)cc23)CC1 [Sertindol] | QT-prolong. |  | 
CC(C)(C)c1ccc(C(O)CCCN2CCC(C(O)(c3ccccc3)c3ccccc3)CC2)cc1 (stereo not drawn) [Terfenadine] |  |  | Concentration at which detected as potential QT-prolongation inducer (48 hpf zebrafish embryos; tested at 0.1, 1, 5, 10, 20 and 50 µM): 5 µM
CC(CC(c1ccccc1)c1ccccc1)NC(C)(C)C (stereo not drawn) [Terodiline] | QT-prolong. |  | Cardiotoxic effect in zebrafish (48 hpf zebrafish embryos): Arrhythmia 2∶1
C[C@]12CC[C@H]3[C@@H](CCC4=CC(=O)CC[C@@]43C)[C@@H]1CC[C@@H]2O [Testosterone] | Bradycardia |  | Cardiotoxic effect in zebrafish (48 hpf zebrafish embryos): Bradycardia
COc1ccc2cc(-c3nc(-c4ccc([S+](C)[O-])cc4)[nH]c3-c3ccncc3)ccc2c1 (stereo not drawn) [Tie2 Kinase inhibitor] |  | No | Angiog. inhibition (zebrafish embryos; listed as Tie-2 kinase inhibitor): not detected
CC(C)(C)NC[C@H](O)COc1nsnc1N1CCOCC1 [Timolol] | Bradycardia |  | 
N#C/C(=C\c1ccc(O)c(O)c1)C(=O)NCc1ccccc1 [Tyrphostin AG490] |  | No | 
COc1cc2c(Nc3ccc(Br)cc3F)ncnc2cc1OCC1CCN(C)CC1 [ZD6474 (Vandetanib), Vandetanib] |  | Yes | Efective concentration (minimum concentration that showed an effect) (zebrafish embryos; given when IC50 could not be calculated): 100 µM; Anti-angiogenic phenotype (ISVs / DLAV) (zebrafish embryos): the formation of ISVs was perturbed with defective or total absence of sprouting
O=C1Cc2cc(CCN3CCN(c4nsc5ccccc45)CC3)c(Cl)cc2N1 [Ziprasidone] | QT-prolong. |  | 
N.N.[Cl][Pt][Cl] [cis-Diammineplatinum(II) dichloride] |  | No | 
